These results are taken from patent US9896441B2 (Lycera Corporation, priority 2014, dated 2018).

SMILES strings stand for the structures. Some results are limits rather than exact numbers.

One assay deals with T1, RORγ-LBD (Homo sapiens, UniProt P51449).
T1 construct: made in house; host or cells: SF9 cells (baculovirus); used as diluted lysate
T1 sequence (P51449 269-508 limits assumed): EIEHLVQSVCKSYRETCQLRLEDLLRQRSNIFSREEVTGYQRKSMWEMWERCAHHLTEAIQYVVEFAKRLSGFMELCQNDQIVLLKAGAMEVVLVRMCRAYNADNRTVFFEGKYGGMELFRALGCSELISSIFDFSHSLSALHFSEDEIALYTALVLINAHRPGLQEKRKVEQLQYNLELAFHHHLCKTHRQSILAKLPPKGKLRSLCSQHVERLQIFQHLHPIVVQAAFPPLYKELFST
The assay can be described thus: RORγ-Ligand Binding Domain (LBD) TR-FRET Assay. The format is biochemical. The following applies: RORγ-LBD TR-FRET. The essentials:
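His-tagged RORγ-LBD from SF9 baculovirus lysate, ~3 nM final, in 50 mM Tris pH 7.0, 50 mM KCl, 1 mM EDTA, 0.1 mM DTT, 0.01% BSA. Biotinylated SRC1 LXXLL peptide at 200 nM final with 2 μM ursolic acid; TR-FRET read-out, 1% DMSO final.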

The target in the next assay is T2, Gal4-RORγ-LBD (Homo sapiens, UniProt P51449).
T2 construct: expressed in transfected cells
T2 sequence (P51449 269-508 limits assumed): T1 sequence (P51449 269-508 limits assumed)
The assay is described as follows: Gal4-RORγ Luciferase Reporter Assay in HEK-293T Cells. The class given is cell-based. Conditions: HEK-293 cells, luciferase reporter, with ursolic acid. The essentials: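 HEK-293 cells were co-transfected with Gal4-RORγ-LBD and a Gal4-luciferase reporter, then exposed overnight at 37 °C to compounds with […] ursolic acid present (0.2% DMSO). Luminescence was read with One-Glo after 10 min at RT, untreated signal was set as 100, and Max Response was taken as the upper plateau of a 4-parameter logistic fit.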
(Reporter assays use an easily measured gene product as a stand-in for the process of interest.)

Consider `CCOc1nn(CC)cc1S(=O)(=O)N1C[C@H](CCC(=O)O)Oc2ccc(/C=C/c3c(Cl)cccc3Cl)cc21` [Example 89CR, (S,E)-3-(6-(2,6-dichlorostyryl)-4-((3-ethoxy-1-ethyl-1H-pyrazol-4-yl)sulfonyl)-3,4-dihydro-2H-benzo[b][1,4]oxazin-2-yl)-propanoic acid], for which the EC50 at RORγ-LBD and on Gal4-RORγ-LBD was less than 500 nM in each case.

Regarding `COC(=O)CC[C@H]1CN(S(=O)(=O)c2cccc(OC(F)F)c2)c2cc(/C=C/c3c(Cl)cccc3Cl)ccc2O1` [Example 89CS, methyl (S,E)-3-(6-(2,6-dichlorostyryl)-4-((3-(difluoromethoxy)phenyl)sulfonyl)-3,4-dihydro-2H-benzo[b][1,4]-oxazin-2-yl)propanoate], the EC50 on RORγ-LBD and at Gal4-RORγ-LBD was less than 500 nM in each case.

For `O=C(O)CC[C@H]1CN(S(=O)(=O)c2cccc(OC(F)F)c2)c2cc(/C=C/c3c(Cl)cccc3Cl)ccc2O1` [Example 89CT, (S,E)-3-(6-(2,6-dichlorostyryl)-4-((3-(difluoromethoxy)phenyl)-sulfonyl)-3,4-dihydro-2H-benzo[b][1,4]oxazin-2-yl)propanoic acid], the EC50 at RORγ-LBD and on Gal4-RORγ-LBD was less than 500 nM in each case.

Consider `COC(=O)CC[C@H]1CN(S(=O)(=O)c2ccc(F)c(OC(F)F)c2)c2cc(/C=C/c3c(F)cccc3Cl)ccc2O1` [Example 89CU, methyl (S,E)-3-(6-(2-chloro-6-fluorostyryl)-4-((3-(difluoromethoxy)-4-fluorophenyl)-sulfonyl)-3,4-dihydro-2H-benzo[b][1,4]oxazin-2-yl)propanoate], for which the results for the concentration for a half-maximal effect (EC50) on RORγ-LBD and at Gal4-RORγ-LBD were less than 500 nM and 500 to 5000 nM, respectively.

On to `O=C(O)CC[C@H]1CN(S(=O)(=O)c2ccc(F)c(OC(F)F)c2)c2cc(/C=C/c3c(F)cccc3Cl)ccc2O1` [Example 89CV, (S,E)-3-(6-(2-chloro-6-fluorostyryl)-4-((3-(difluoromethoxy)-4-fluorophenyl)-sulfonyl)-3,4-dihydro-2H-benzo[b][1,4]oxazin-2-yl)propanoic acid], for which the EC50 on RORγ-LBD and on Gal4-RORγ-LBD was less than 500 nM throughout.

Regarding `CCOc1ncc(Cl)cc1S(=O)(=O)N1C[C@H](CCC(=O)OC)Oc2ccc(/C=C/c3c(F)cccc3Cl)cc21` [Example 89CW, methyl (S,E)-3-(4-((5-chloro-2-ethoxypyridin-3-yl)sulfonyl)-6-(2-chloro-6-fluorostyryl)-3,4-dihydro-2H-benzo[b][1,4]oxazin-2-yl)propanoate], the EC50 (commonly the concentration giving half of the maximal effect) was less than 500 nM on RORγ-LBD and 500 to 5000 nM at Gal4-RORγ-LBD.

For the molecule `CCOc1ncc(Cl)cc1S(=O)(=O)N1C[C@H](CCC(=O)O)Oc2ccc(/C=C/c3c(F)cccc3Cl)cc21` [Example 89CX, (S,E)-3-(4-((5-chloro-2-ethoxypyridin-3-yl)sulfonyl)-6-(2-chloro-6-fluorostyryl)-3,4-dihydro-2H-benzo[b][1,4]oxazin-2-yl)propanoic acid], the EC50 is less than 500 nM at RORγ-LBD and 500 to 5000 nM on Gal4-RORγ-LBD.

On to `CCOc1ncc(Cl)cc1S(=O)(=O)N1C[C@H](CCC(=O)OC)Oc2ccc(/C=C/c3c(Cl)cccc3C(F)(F)F)cc21` [Example 89CY, methyl (S,E)-3-(4-((5-chloro-2-ethoxypyridin-3-yl)sulfonyl)-6-(2-chloro-6-(trifluoromethyl)-styryl)-3,4-dihydro-2H-benzo-[b][1,4]oxazin-2-yl)propanoate], for which the EC50 at RORγ-LBD is less than 500 nM; at Gal4-RORγ-LBD it was 500 to 5000 nM.

With `CCOc1ncc(Cl)cc1S(=O)(=O)N1C[C@H](CCC(=O)O)Oc2ccc(/C=C/c3c(Cl)cccc3C(F)(F)F)cc21` [Example 89CZ, (S,E)-3-(4-((5-chloro-2-ethoxypyridin-3-yl)sulfonyl)-6-(2-chloro-6-(trifluoromethyl)-styryl)-3,4-dihydro-2H-benzo-[b][1,4]oxazin-2-yl)propanoic acid], the EC50 was less than 500 nM at RORγ-LBD and 500 to 5000 nM on Gal4-RORγ-LBD.

As for `COC(=O)CC[C@H]1CN(S(=O)(=O)c2cccc(OC(F)F)c2)c2cc(/C=C/c3ccccn3)ccc2O1` [Example 89D, (S,E)-methyl 3-(4-((3-(difluoromethoxy)phenyl)sulfonyl)-6-(2-(pyridin-2-yl)vinyl)-3,4-dihydro-2H-benzo[b][1,4]oxazin-2-yl)propanoate], the concentration for a half-maximal effect (EC50) was less than 500 nM on RORγ-LBD and 500 to 5000 nM on Gal4-RORγ-LBD.

`CCOc1nn(CC)cc1S(=O)(=O)N1C[C@H](CCC(=O)OC)Oc2ccc(/C=C/c3ccc(Cl)cc3)cc21` [Example 89DA, methyl (S,E)-3-(6-(4-chlorostyryl)-4-((3-ethoxy-1-ethyl-1H-pyrazol-4-yl)sulfonyl)-3,4-dihydro-2H-benzo[b][1,4]oxazin-2-yl)propanoate]: the EC50 on RORγ-LBD and on Gal4-RORγ-LBD was greater than 10000 nM throughout.

Regarding `CCOc1nn(CC)cc1S(=O)(=O)N1C[C@H](CCC(=O)O)Oc2ccc(/C=C/c3ccc(Cl)cc3)cc21` [Example 89DB, (S,E)-3-(6-(4-chlorostyryl)-4-((3-ethoxy-1-ethyl-1H-pyrazol-4-yl)sulfonyl)-3,4-dihydro-2H-benzo[b][1,4]oxazin-2-yl)propanoic acid], the EC50 on RORγ-LBD and at Gal4-RORγ-LBD was greater than 10000 nM in each case.

With `CCOc1nn(CC)cc1S(=O)(=O)N1C[C@H](CCC(=O)O)Oc2ccc(/C=C/c3ccc(C#N)cc3)cc21` [Example 89DC, (S,E)-3-(6-(4-cyanostyryl)-4-((3-ethoxy-1-ethyl-1H-pyrazol-4-yl)sulfonyl)-3,4-dihydro-2H-benzo[b][1,4]oxazin-2-yl)propanoic acid], the 50% effective concentration (EC50) on RORγ-LBD and on Gal4-RORγ-LBD was greater than 10000 nM in each case.

On to `COC(=O)CC[C@H]1CN(S(=O)(=O)c2cccc(C(F)(F)F)c2)c2cc(/C=C/c3ccccn3)ccc2O1` [Example 89DH, methyl (S,E)-3-(6-(2-(pyridin-2-yl)vinyl)-4-((3-(trifluoromethyl)phenyl)sulfonyl)-3,4-dihydro-2H-benzo[b][1,4]oxazin-2-yl)propanoate], for which the values for the EC50 at RORγ-LBD and on Gal4-RORγ-LBD were less than 500 nM and 500 to 5000 nM, respectively.

`COC(=O)CC[C@H]1CN(S(=O)(=O)c2cccc(C(F)(F)F)c2)c2cc(/C=C/c3cccc(Cl)c3)ccc2O1` [Example 89DI, methyl (S,E)-3-(6-(3-chlorostyryl)-4-((3-(trifluoromethyl)phenyl)-sulfonyl)-3,4-dihydro-2H-benzo[b][1,4]oxazin-2-yl)propanoate]: the EC50 on RORγ-LBD was less than 500 nM; on Gal4-RORγ-LBD, greater than 10000 nM.

For the molecule `CCOc1nn(CC)cc1S(=O)(=O)N1C[C@H](CCC(=O)OC)Oc2ccc(/C=C/c3ncccc3Cl)cc21` [Example 89DJ, methyl (S,E)-3-(6-(2-(3-chloropyridin-2-yl)vinyl)-4-((3-ethoxy-1-ethyl-1H-pyrazol-4-yl)sulfonyl)-3,4-dihydro-2H-benzo[b][1,4]oxazin-2-yl)propanoate], the EC50 at RORγ-LBD is less than 500 nM; on Gal4-RORγ-LBD it was 500 to 5000 nM.

With `COc1cccnc1/C=C/c1ccc2c(c1)N(S(=O)(=O)c1cccc(C(F)(F)F)c1)C[C@H](CCC(=O)O)O2` [Example 89DK, (S,E)-3-(6-(2-(3-methoxypyridin-2-yl)vinyl)-4-((3-(trifluoromethyl)phenyl)-sulfonyl)-3,4-dihydro-2H-benzo[b][1,4]oxazin-2-yl)propanoic acid], the EC50 is less than 500 nM at RORγ-LBD and 500 to 5000 nM at Gal4-RORγ-LBD.

Regarding `N#Cc1cccnc1/C=C/c1ccc2c(c1)N(S(=O)(=O)c1cccc(C(F)(F)F)c1)C[C@H](CCC(=O)O)O2` [Example 89DL, (S,E)-3-(6-(2-(3-cyanopyridin-2-yl)vinyl)-4-((3-(trifluoromethyl)-phenyl)sulfonyl)-3,4-dihydro-2H-benzo[b][1,4]oxazin-2-yl)propanoic acid], the concentration for a half-maximal effect (EC50) on RORγ-LBD was less than 500 nM; on Gal4-RORγ-LBD it was 500 to 5000 nM.

In the case of `CCOc1ncc(C(F)(F)F)cc1S(=O)(=O)N1C[C@H](CCC(=O)O)Oc2ccc(/C=C/c3c(Cl)cccc3C(F)(F)F)cc21` [Example 89DM, (S,E)-3-(6-(2-chloro-6-(trifluoromethyl)styryl)-4-((2-ethoxy-5-(trifluoromethyl)-pyridin-3-yl)sulfonyl)-3,4-dihydro-2H-benzo[b][1,4]-oxazin-2-yl)propanoic acid], the concentration giving a half-maximal response (EC50) at RORγ-LBD and at Gal4-RORγ-LBD was less than 500 nM throughout.

On to `CCOc1ncc(C(F)(F)F)cc1S(=O)(=O)N1C[C@H](CCC(=O)OC)Oc2ccc(/C=C/c3c(Cl)cccc3C(F)(F)F)cc21` [Example 89DN, methyl (S,E)-3-(6-(2-chloro-6-(trifluoromethyl)styryl)-4-((2-ethoxy-5-(trifluoromethyl)-pyridin-3-yl)sulfonyl)-3,4-dihydro-2H-benzo[b][1,4]-oxazin-2-yl)propanoate], for which the half-maximal effective concentration (EC50) is less than 500 nM on RORγ-LBD and 500 to 5000 nM on Gal4-RORγ-LBD.

On to `CCOc1nn(CC)cc1S(=O)(=O)N1C[C@H](CCC(=O)O)Oc2ccc(/C=C/c3c(Cl)cccc3C(F)(F)F)cc21` [Example 89DO, (S,E)-3-(6-(2-chloro-6-(trifluoromethyl)styryl)-4-((3-ethoxy-1-ethyl-1H-pyrazol-4-yl)sulfonyl)-3,4-dihydro-2H-benzo[b][1,4]oxazin-2-yl)propanoic acid], for which the EC50 on RORγ-LBD and at Gal4-RORγ-LBD was less than 500 nM throughout.
